The values that follow come from patent US5650428A, “Arylsulfonamide derivative and pharmaceutical compositions and use thereof” (NKK Corporation, priority 1993, dated 1997).

Each structure is given as a SMILES string. Counter-ions that a name gives are not always drawn.

The target of test [1] is T1, thromboxane A2 (TxA2) receptor (Cavia porcellus, UniProt A0A286Y4I8).
T1 construct: to obtain washed platelets; from tissue; host or cells: washed platelets of male Hartley guinea pigs
T1 sequence (A0A286Y4I8 1-347): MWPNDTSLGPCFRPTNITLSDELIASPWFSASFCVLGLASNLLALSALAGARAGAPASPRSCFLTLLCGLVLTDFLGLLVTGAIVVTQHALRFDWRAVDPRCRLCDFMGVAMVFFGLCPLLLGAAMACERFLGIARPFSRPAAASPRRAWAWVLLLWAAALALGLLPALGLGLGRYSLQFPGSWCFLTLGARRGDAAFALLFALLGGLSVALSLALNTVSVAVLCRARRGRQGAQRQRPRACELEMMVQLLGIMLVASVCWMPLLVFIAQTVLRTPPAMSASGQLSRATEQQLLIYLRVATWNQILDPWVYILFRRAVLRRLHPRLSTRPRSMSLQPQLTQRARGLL
Kind of test: TxA2 antagonist action by binding assay. Particulars: washed guinea pig platelets, 1 nM [3H]-SQ29,548, 45 minutes at 25° C. Here is the method: (1) TxA2 antagonist action by binding assay Guinea pigs (Hartley; male; body weight=approximately 500 g) were anesthetized with ether, and the blood was collected into sodium citrate (final concentration=0.38%). The preparation of platelets was carried out at room temperature. The platelet rich plasma was obtained by centrifugation at 980 rpm for 10 minutes. One tenth (1/10) amount of 77 mM-EDTA-Na (pH 7.4) was added to the platelet rich plasma, and the mixture was centrifuged for 10 minutes at 3000 rpm. The suspension was again centrifuged at 3000 rpm for 10 minutes. The precipitate was further resuspended in a suspension buffer (2) shown in Table 2 to obtain washed platelets. The number of platelets was counted by an automatic blood cell counter (Sysmex Microcellcounter F-800) and the sample was diluted with the suspension buffer to 4×10^8 cells/ml. The platelets, sample solution and labeled compounds were placed into plastic tubes in amounts (volumes) shown in the following Table 3, incubated for 45 minutes at 25° C., and then the mixture was filtered using a cell harvester (Brandel cell harvester M-24R) by a glass fiber filter (Whatman GF/B). After the filter was sufficiently dried, the scintillation was counted by a scintillation counter (Beckman LS5000TD). IC50 was calculated from (binding)/(control binding) ratio in the presence of an antagonist. [table 3: the next 10 blocks are its lines as printed, fixed-width]

Another test has as its system rat platelet. Kind of test: Inhibitory activity of aggregation in rat platelet. Particulars: rat platelet rich plasma, arachidonic acid (final concentration 0.5 mM) as inducer; read-out: C: Inhibitory activity of aggregation in rat platelet (IC50; μM). In kind it is cell-based. How it is done: (3) Inhibitory Activity of Aggregation in Rat Platelet The abdomen of etherized rat was open, and blood was taken from the abdominal arteries, using a sodium citrate solution (final concentration was 0.38%). The blood was centrifuged at 1100 rpm for 10 minutes, and the supernatent was separated as the platelet rich plasma. The plasma was further centrifuged at 2000 rpm for 15 minutes to obtain the supernatent as a platelet poor plasma. The platelet rich plasma (280 μl) was placed in a measuring cuvette and preincubated for 1 minute at 37° C. Then, a sample solution (10 μl) was added. After 2 minutes, an arachidonic acid solution (final concentration=0.5 mM) (10 μl) was added as an inducer. The change in light transmission was recorded for 5 minutes.

In general, IC50 refers to the midpoint of a concentration-inhibition curve. Take `Cc1ccc(S(=O)(=O)NC(COC2CCCCO2)C(=O)Nc2ccc(CC(=O)O)cc2)cc1` (racemic) [Example 56, (RS)-N-(4-(carboxymethyl)phenyl)-2-(4-methylbenzenesulfonylamino)-3-(tetrahydropyran-2-yloxy)propanamide]: the results for the half-inhibitory concentration (IC50) (in test [1]; in the test on rat platelet) were 0.3 µM and 1.7 µM, respectively.
For the compound `O=C(O)Cc1ccc(NC(=O)C(COC2CCCCO2)NS(=O)(=O)c2ccc(F)cc2)cc1` (racemic) [Example 53, (RS)-N-(4-(carboxymethyl)phenyl)-2-(4-fluorobenzenesulfonylamino)-3-(tetrahydropyran-2-yloxy)propanamide], the IC50 in test [1] worked out at 0.2 µM; with rat platelet it was 0.53 µM.
The corresponding values for `O=C(O)Cc1ccc(NC(=O)C(COc2cccc(Cl)c2)NS(=O)(=O)c2ccc(F)cc2)cc1` (racemic) [Example 138, (RS)-N-(4-(carboxymethyl)phenyl)-3-(3-chlorophenoxy)-2-(4-fluorobenzenesulfonylamino)propanamide] are 0.1 µM and 0.53 µM.
In the same order, the values of `O=C(O)Cc1ccc(NC(=O)C(COc2ccccc2Cl)NS(=O)(=O)c2ccc(Cl)cc2)cc1` (racemic) [Example 132, (RS)-N-(4-(carboxymethyl)phenyl)-2-(4-chlorobenzenesulfonylamino)-3-(2-chlorophenoxy)propanamide] are 0.023 µM and 1.7 µM.
In the same order, the values of `CC(C)CC(NS(=O)(=O)c1ccc(Cl)cc1)C(=O)Nc1ccc(CC(=O)O)cc1` (racemic) [Example 232, (RS)-N-(4-(carboxymethyl)phenyl)-2-(4-chlorobenzenesulfonylamino)-4-methylpentanamide] are 0.16 µM and 1.7 µM.
In the case of `O=C(O)Cc1ccc(NC(=O)C(CCOC2CCCCO2)NS(=O)(=O)c2ccc(Cl)cc2)cc1` (racemic) [Example 169, (RS)-N-(4-(carboxymethyl)phenyl)-2-(4-chlorobenzenesulfonylamino)-4-(tetrahydropyran-2-yloxy)butanamide], the IC50 in test [1] amounted to 0.69 µM; in the test with rat platelet, 1.7 µM.
With `O=C(O)Cc1ccc(NC(=O)C(COc2cccnc2)NS(=O)(=O)c2ccc(F)cc2)cc1` (racemic) [Example 123, (RS)-N-(4-(carboxymethyl)phenyl)-2-(4-fluorobenzenesulfonylamino)-3-(pyridin-3-yloxy)propanamide], the IC50 in test [1] turned out to be 2 µM; with rat platelet it was 0.31 µM.
In the same order, the values of `O=C(O)Cc1ccc(NC(=O)C(COc2cccnc2)NS(=O)(=O)c2ccc(Br)cc2)cc1` (racemic) [Example 124, (RS)-2-(4-bromobenzenesulfonylamino)-N-(4-(carboxymethyl)phenyl)-3-(pyridin-3-yloxy)propanamide] are 0.13 µM and 0.31 µM.
On to `CSCC[C@H](NS(=O)(=O)c1ccc(Br)cc1)C(=O)Nc1ccc(CCC(=O)O)cc1` [Example 240, (S)-2-(4-bromobenzenesulfonylamino)-N-(4-(2-carboxyethyl)phenyl)-4-methylthiobutanamide], for which the values for the IC50 (in test [1]; in the test with rat platelet) were 0.099 µM and 0.17 µM, respectively.
The corresponding values for `O=C(O)Cc1ccc(NC(=O)C(COc2ccccc2)NS(=O)(=O)c2ccc(I)cc2)cc1` (racemic) [Example 149, (RS)-N-(4-(carboxymethyl)phenyl)-2-(4-iodobenzenesulfonylamino)-3-phenoxypropanamide] are 0.017 µM and 0.17 µM.
In the same order, the values of `CCCC[C@@H](NS(=O)(=O)c1ccc(Cl)cc1)C(=O)Nc1ccc(CC(=O)O)cc1` [Example 224, (R)-N-(4-(carboxymethyl)phenyl)-2-(4-chlorobenzenesulfonylamino)hexanamide] are 48.2 µM and 3.4 µM.
For `O=C(O)Cc1ccc(NC(=O)C(COc2cccnc2)NS(=O)(=O)c2ccc(Cl)cc2)cc1` (racemic) [Example 116, (RS)-N-(4-(carboxymethyl)phenyl)-2-(4-chlorobenzenesulfonylamino)-3-(pyridin-3-yloxy)propanamide hydrochloride], the IC50 in test [1] is 0.5 µM; in the test with rat platelet, 0.95 µM.
In the same order, the values of `O=C(O)c1cccc(NC(=O)[C@H](Cc2ccccc2)NS(=O)(=O)c2ccc(Br)cc2)c1` [Example 257, (S)-2-(4-bromobenzenesulfonylamino)-N-(3-carboxyphenyl)-3-phenylpropanamide] are 0.0087 µM and 0.17 µM.
As for `CSCC[C@H](NS(=O)(=O)c1ccc(Cl)cc1)C(=O)Nc1ccc(CCC(=O)O)cc1` [Example 237, (S)-N-(4-(2-carboxyethyl)phenyl)-2-(4-chlorobenzenesulfonylamino)-4-methylthiobutanamide], the IC50 worked out at 0.15 µM in test [1] and 0.3 µM in the test on rat platelet.
As to `O=C(O)CCCCCCNC(=O)C(COC1CCCCO1)NS(=O)(=O)c1ccc(Cl)cc1` (racemic) [Example 50, (RS)-N-(6-carboxyhexyl)-2-(4-chlorobenzenesulfonylamino)-3-(tetrahydropyran-2-yloxy)propanamide], the IC50 in test [1] was 1 µM; with rat platelet, 1.75 µM.
Turning to `O=C(O)Cc1ccc(NC(=O)C(COc2ccccc2)NS(=O)(=O)c2ccc(Cl)cc2)cc1` (racemic) [Example 129, (RS)-N-(4-(carboxymethyl)phenyl)-2-(4-chlorobenzenesulfonylamino)-3-phenoxypropanamide], the IC50 in test [1] stood at 0.72 µM; with rat platelet it was 0.54 µM.
In the same order, the values of `O=C(O)Cc1ccc(NC(=O)C(CC2CCCCC2)NS(=O)(=O)c2ccc(Cl)cc2)cc1` (racemic) [Example 260, (RS)-N-(4-(carboxymethyl)phenyl)-2-(4-chlorobenzenesulfonylamino)-3-cyclohexylpropanamide] are 0.06 µM and 0.89 µM.
The corresponding values for `O=C(O)CCc1ccc(NC(=O)[C@H](Cc2ccccc2)NS(=O)(=O)c2ccc(Cl)cc2)cc1` [Example 250, (S)-N-(4-(2-carboxyethyl)phenyl)-2-(4-chlorobenzenesulfonylamino)-3-phenylpropanamide] are 0.029 µM and 0.17 µM.
The corresponding values for `O=C(O)Cc1ccc(NC(=O)C(COC2CCCCO2)NS(=O)(=O)c2ccc3ccccc3c2)cc1` (racemic) [Example 60, (RS)-N-(4-(carboxymethyl)phenyl)-N-(4-(carboxymethyl)phenyl)-2-(2-naphthalenesulfonylamino)-3-(tetrahydropyran-2-yloxy)propanamide] are 0.23 µM and 5.3 µM.
`O=C(O)Cc1ccc(NC(=O)C(Cc2ccccc2)NS(=O)(=O)c2ccc(Cl)cc2)cc1` (racemic) [Example 247, (RS)-N-(4-(carboxymethyl)phenyl)-2-(4-chlorobenzenesulfonylamino)-3-phenylpropanamide]: the IC50 in test [1] was 0.046 µM; in the test on rat platelet it was 0.54 µM.
On to `CCCCC(NS(=O)(=O)c1ccc(Br)cc1)C(=O)Nc1ccc(CC(=O)O)cc1` (racemic) [Example 226, (RS)-2-(4-bromobenzenesulfonylamino)-N-(4-(carboxymethyl)phenyl)hexanamide], for which the IC50 in test [1] worked out at 0.072 µM; in the test on rat platelet it was 0.53 µM.
In the same order, the values of `O=C(O)Cc1ccc(NC(=O)C(COc2ccccc2Cl)NS(=O)(=O)c2ccc(I)cc2)cc1` (racemic) [Example 152, (RS)-N-(4-(carboxymethyl)phenyl)-3-(2-chlorophenoxy)-2-(4-iodobenzenesulfonylamino)propanamide] are 0.074 µM and 1.7 µM.
In the same order, the values of `O=C(O)CCc1ccc(NC(=O)C(Cn2ccnc2)NS(=O)(=O)c2ccc(Cl)cc2)cc1` (racemic) [Example 95, (RS)-N-(4-(2-carboxyethyl)phenyl)-2-(4-chlorobenzenesulfonylamino)-3-(1H-imidazol-1-yl)propanamide hydrochloride] are 1.5 µM and 1.79 µM.
In the same order, the values of `O=C(O)CCc1ccc(NC(=O)C(CCc2ccccc2)NS(=O)(=O)c2ccc(Cl)cc2)cc1` (racemic) [Example 174, (RS)-N-(4-(2-carboxyethyl)phenyl)-2-(4-chlorobenzenesulfonylamino)-4-phenylbutanamide] are 0.17 µM and 5.3 µM.
